In patent US20250262225A1, “COMPOSITION FOR TREATMENT OF COVID-19 COMPRISING TAURODEOXYCHOLIC ACID OR PHARMACEUTICALLY ACCEPTABLE SALT THEREOF AS ACTIVE INGREDIENT” (SHAPERON INC., priority 2021, published 2025):

What was measured:
[1] = half-life estimate from non-clinical data; settings: calculated based on estimates made from non-clinical data
mBMDM [2] = experiment: qRT-PCR of inflammation-related factor transcription in LPS+BzATP-treated mBMDM; assay type: cell-based, mouse; settings: 10 ng/ml LPS, 300 μM BzATP and 400 ng/ml TDCA simultaneously 1 hour, FIG. 1B
Experimental: (§1) The bone marrow-derived macrophages of Example <1-1> were cultured in culture dishes at various densities and then collected (4×10^4, 5×10^5, 1×10^6 cells/well, 96-well, 24-well, and 12-well culture dishes, respectively). […] After the time expired, the cells were collected, stored at −80° C., and then subjected to qRT-PCR analysis.

[3] = phase 1 clinical trial: safety/tolerability and pharmacokinetics in healthy adult male volunteers; assay type: in vivo, human; settings: healthy males
Experimental: Forty healthy adult male volunteers in Korea were selected as subjects for the clinical trial. The clinical trial was conducted at Seoul National University Hospital (Seoul, Korea) and was targeted at people who met all of the selection criteria in [Table 1].
A randomized, double-blind, standard treatment-based placebo-controlled trial group was assigned to evaluate drug safety/tolerability and pharmacokinetics (PK) in clinical trial subjects. As a therapeutic agent, NuSepin, an injectable clinical agent containing TDCA, was used.
A screening test was performed on healthy male volunteers within 4 weeks (−28 d to −4 d) from the first administration date (1 d) of the study drug to select test subjects determined to be suitable for this clinical trial. […] In the morning on the study drug administration date (1 d), designated tests such as blood collection for pharmacokinetic analysis and safety evaluation were performed, and then the study drug or placebo was administered intravenously on an empty stomach. The test subjects were subjected to the clinical trial according to the set schedule and discharged from the hospital 1 day (2 d) after administration, and the subjects who completed all clinical trial schedules underwent a post-study visit between 4 d and 6 d.
• Monitoring of adverse events such as subjective and objective symptoms • Physical examination • Vital signs • Electrocardiogram (12-Lead ECG) test • Clinical laboratory test • Local toxicity assessment • Continuous ECG and SpO2 monitoring
Adverse events were described by dose group and treatment group based on severity and causal relationship with the stsudy drug, and the frequency and percentage of the number of test subjects with adverse events were compared and evaluated. Vital signs, electrocardiogram test, clinical laboratory tests, physical examination, monitoring of adverse events such as subjective and objective symptoms, continuous ECG and SpO2 monitoring, and the like were comprehensively reviewed, and statistical analysis was performed if necessary only on items determined to be clinically significant.
Pharmacokinetic variables were obtained by a non-compartmental analysis method for subjects who completed this clinical trial using appropriate and validated pharmacokinetic software (for example, Phoenix WinNonlin® (Version 8.0 or higher, Pharsight, CA, USA)), and descriptive statistics (mean, standard deviation, and the like) were obtained for each dose group and treatment group.

[4] = system: sepsis induced by intravenous LPS in dogs; experiment: canine LPS-induced sepsis (systemic inflammation) model; assay type: in vivo, dog; settings: LPS i.v.
Experimental: After LPS administration, blood pressure was monitored every 1 hour, blood was collected at 0, 1, 3, 6, 12, 18, 24, 36, and 48 h, and the animals were sacrificed at 48 h to complete the experiment.
The survival rate was examined by checking the number of beagle dogs that died for 48 hours in the two treatment groups in which sepsis was induced in Example <2-1>.
Blood pressure was measured hourly for 48 hours in the two treatment groups in which sepsis was induced in Example <2-1>.
Blood urea nitrogen (BUN) and creatinine tests were performed as renal function tests. Specifically, blood was collected hourly for 48 hours from the two treatment groups in which sepsis was induced in Example <2-1>, serum was separated, and then BUN and […] concentrations in the serum were measured.
Blood was collected hourly for 48 hours from the two treatment groups in which sepsis was induced in Example <2-1>, serum was separated, and then the inflammatory cytokine IL-1β in the serum was measured.

mBMDM [5] = experiment: TNF-α ELISA in LPS-primed mBMDM; assay type: cell-based, mouse; settings: 10 ng/ml LPS 3 hours, then 0, 25, 100, 400 ng/ml TDCA 1 hour, FIG. 1C
Experimental: After the time expired, the supernatant was collected, stored at −80° C., and then subjected to ELISA analysis.

mBMDM [6] = experiment: IL-1β ELISA in mBMDM activated with LPS+ATP or LPS+BzATP; assay type: cell-based, mouse; settings: then 0, 25, 100 or 400 ng/ml TDCA, FIG. 2B
Experimental: as §1, with “supernatant was” for “cells were”, “ELISA” for “qRT-PCR”

mBMDM cells = experiment: intracellular cAMP concentration in LPS-stimulated mBMDM (chemiluminescent analysis); assay type: cell-based, mouse; settings: 100 ng/ml LPS and 400 ng/ml TDCA simultaneously for 30 minutes; FIG. 1A
Experimental: Specifically, the bone marrow extracted from C57BL/6N mouse was differentiated in RPMI medium supplemented with 10% FBS, 100 U/ml penicillin streptomycin, 55 μM 2-mercaptoethanol, and 10 ng/ml recombinant mouse granulocyte-macrophage colony-stimulating factor (GM-CSF) for 7 days.

[7] = single i.v. NuSepin 0.1-1.6 mg/kg or placebo

For sodium taurodeoxycholate [TDCA], which “half-life of the drug” value [1] is on record?
Its value is “approximately 1 hour”.

And the “intracellular transcriptional expression of ASC” value (mBMDM [2])?
Its value is “decreased”.

And the “intracellular transcriptional expression of Caspase1” value (mBMDM [2])?
The value was “decreased”.

What about the “intracellular transcriptional expression of IL-1β” value (mBMDM [2]) of the same substance?
The value was “decreased”.

And the “intracellular transcriptional expression of NLRP3” value (mBMDM [2])?
Its value is “decreased”.

And the PK properties ([3]; single i.v. 0.1, 0.2, 0.4, 0.8, 1.6 mg/kg)?
Its PK properties is “concentration dependent manner”.

And the drug-related side effects [3, 7]?
The drug-related side effects was “one has mild IMD (immunomodulatory drugs)-related side effects”.

What about the “severity and outcome of side effects” value [3, 7] of the same substance?
Its value is “all of the side effects are not severe and recover without treatment”.

What about the “clinical trial subjects with side effects” value ([3]; single i.v. NuSepin 0.1-1.6 mg/kg or placebo, 40 subjects) of the same substance?
The value was “three of the clinical trial subjects have side effects”.

What about the survival rate ([4]; TDCA i.v. 2, 1, 1 mg/kg at 12-hour intervals, 48 hours, half of placebo animals died, FIG. 3B) of the same substance?
Its survival rate is “all animals administered with TDCA have survived until 48 hours”.

And the “blood pressure (hypotensive shock)” value ([4]; TDCA i.v. 2, 1, 1 mg/kg, FIG. 3C)?
The value was “hypotensive shock tends to be inhibited”.

And the “increase in level of BUN in the blood” value ([4]; TDCA i.v. 2, 1, 1 mg/kg, FIG. 3D)?
The value was “suppressed”.

And the “increase in level of creatinine in the blood” value ([4]; TDCA i.v. 2, 1, 1 mg/kg, FIG. 3E)?
Its value is “suppressed”.

And the IL-1β in serum ([4]; TDCA i.v. 2, 1, 1 mg/kg, FIG. 3F)?
The IL-1β in serum was “further inhibited than those in the placebo group”.

And the IL-8 in serum ([4]; TDCA i.v. 2, 1, 1 mg/kg, FIG. 3G)?
Its IL-8 in serum is “further inhibited than those in the placebo group”.

What about the “TNF-α produced by LPS” value (mBMDM [5]) of the same substance?
The value was “decreased”.

And the “concentration of IL-1β produced by inflammation activation” value (mBMDM [6])?
The value was “decreases in proportion to the amount of TDCA used for treatment”.

What about the “cAMP concentration in cells” value (mBMDM cells) of the same substance?
The value was “recovered”.
